# What was measured:
# CXCR4 = molecular target: T1, CXCR4 (Homo sapiens, UniProt P61073); assay: CXCR4-binding inhibition activity (125I-SDF-1α binding to MT-4 cells); details: 0.1 μM test material, ligand 125I-SDF-1α, 2 hours under ice cold condition
# T1 construct: endogenous in cells; host or cells: MT-4 cells
# Method: CXCR4-Binding Inhibition Activity
# MT-4 cells (5×10^6/0.2 ml/well) were cultured on a 24-well microtiter plate. After the cells were incubated for 24 hours at 37° C. in a carbon dioxide gas incubator, a culture mediumwas replaced with a buffer solution (RPMI-1640 containing 0.1% BSA). Together with a ligand ^125I-SDF-1α (specific activity: 2,2000 Ci/mmol; DAIICHI PURE CHEMICALS CO. ,LTD. (Tokyo)), various concentrations of test materials were subjected to a binding reaction for 2 hours under ice cold condition.
# ICR mice = assay: Acute toxicity in ICR mice; assay type: in vivo; details: 50 mg/kg intraperitoneally twice a day for 4 days; dead mice after 5 days; male ICR mice, three animals per group
# Method: The CXCR4-antagonist or the salt thereof of the present invention is intraperitoneally injected in to an ICR mouse ([…]) twice a day for 4 consecutive days, and no lethal case was found after 5 days. Therefore, the conclusion can be drawn that there is no acute toxicity.
# 7-week old ICR mice (male) (obtained from Charls River Japan Inc) were divided into three-animals for each groups. After domestication-breeding for 1 week, the compound of the coresponding Synthesis Example was dissolved in a physiological salt solution or distilled water and the solution was then intraperitoneally dosed twice a day for 4 days (50 mg/kg in dosage).
# T1 sequence (P61073 whole entry): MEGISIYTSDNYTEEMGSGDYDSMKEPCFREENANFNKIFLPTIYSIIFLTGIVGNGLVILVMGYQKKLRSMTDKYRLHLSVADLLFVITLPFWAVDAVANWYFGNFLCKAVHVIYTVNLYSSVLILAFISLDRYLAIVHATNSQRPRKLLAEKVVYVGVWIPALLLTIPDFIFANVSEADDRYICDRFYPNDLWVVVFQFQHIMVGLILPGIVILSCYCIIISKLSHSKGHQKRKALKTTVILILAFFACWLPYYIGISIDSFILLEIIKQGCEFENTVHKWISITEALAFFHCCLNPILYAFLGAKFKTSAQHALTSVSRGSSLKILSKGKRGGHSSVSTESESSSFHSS
SMILES,inhibition rate (binding-inhibition % at 0.1 μM) (CXCR4) [%],inhibition at 0.1 µM (CXCR4; read-out: inhibition rate (binding-inhibition % at 0.1 μM)) [%],Number of dead mice (ICR mice)
"Cn1ccnc1CNCc1ccc(C(=O)N[C@@H](CCCNC2CCCc3cccnc32)C(=O)NCc2cccc3ccccc23)cc1 (stereo partly drawn) [Compound No. 96, (2S)-2-((1-methylimidazol-2-ylmethyl)aminomethyl) benzoylamino-5-(5,6,7,8-tetrahydroquinolyl-8-yl)amino valerate 1-naphthalene methyleneamide]",96.8,,0/3
"O=C(N[C@@H](CCCNC1CCCc2cccnc21)C(=O)NCCc1c[nH]c2ccccc12)c1ccc(CNCc2ccccn2)c2ccccc12 (stereo partly drawn) [Compound No. 92, (2S)-2-(4-(N-2-picolylaminomethyl)naphthoyl)amino-5-(5,6,7,8-tetrahydroquinolin-8-yl)amino valerate 2-(3-indolyl)ethylamide]",,,0/3
"O=C(N[C@@H](CCCNC1CCCc2cccnc21)C(=O)NCc1cccc2ccccc12)c1ccc(CNCc2ncc[nH]2)c2ccccc12 (stereo partly drawn) [Compound No. 41, (2S)-2-(4-((N-imidazol-2-ylmethyl)aminomethyl)naphthoylamino)-5-(5,6,7,8-tetrahydroquinolin-8-ylamino)valerate 1-naphthalenemethylamide]",97.9,,0/3
"O=C(N[C@@H](CCCNC1CCCc2cccnc21)C(=O)NCc1cccc2ccccc12)c1ccc(CNCc2ncc[nH]2)cc1 (stereo partly drawn) [Compound No. 39, (2S)-2-(4-((N-imidazol-2-ylmethyl)aminomethyl)benzoylamino)-5-(5,6,7,8-tetrahydroquinolin-8-ylamino)valerate 1-naphthalenemethylamide]",,,0/3
"C[C@H](NC(=O)[C@H](CCCNC(=N)N)NC(=O)c1ccc(CNCc2ncc[nH]2)c2ccccc12)c1cccc2ccccc12 [Compound No. 49, N^α-(4-(imidazol-2-ylmethyl)aminomethylnaphthoyl)-L-arginine (1′S)-(1′-(1-naphthyl)ethyl)amide]",97.8,,0/3
"C[C@H](NC(=O)[C@H](CCCNC(=N)N)NC(=O)c1ccc(CNCc2nccn2C)c2ccccc12)c1cccc2ccccc12 [Compound No. 97, N^α-(4-((N-(1-methylimidazol-2-ylmethyl)amino)methyl)naphthalene-1-carbonyl)-L-arginine(1′S)-1′-(1-naphthyl)ethylamide]",100.0,,0/3
C[C@H](NC(=O)[C@H](CCCNC1CCCc2cccnc21)NC(=O)c1ccc(CNCc2ncc[nH]2)cc1)c1cccc2ccccc12 (some centres unmarked) [Compound No. 106],100.0,,0/3
"C[C@H](NC(=O)[C@H](CCCNC1CCCc2cccnc21)NC(=O)c1ccc(CNCc2ccccn2)nc1)c1cccc2ccccc12 (stereo partly drawn) [Compound No. 83, (2S)-2-(2-(N-2-picolylaminomethyl)pyridin-5-ylcarbonyl)amino-5-(5,6,7,8-tetrahydroquinolin-8-yl)amino valerate(1′S)-1′-(1-naphthyl)ethylamide]",78.0,,
C[C@H](NC(=O)[C@H](CCCNC1CCCc2cccnc21)NC(=O)c1ccc(CNCc2ncc[nH]2)c2ccccc12)c1cccc2ccccc12 (some centres unmarked) [Compound No. 57],97.8,,0/3
"O=C(N[C@@H](CCCNC1CCCc2cccnc21)C(=O)NCc1cccc2ccccc12)c1ccc(CNCc2ccccn2)cc1 (stereo partly drawn) [Compound No. 65, (2S)-2-(4-(N-2-picolylaminomethyl)benzoylamino)-5-((5,6,7,8-tetrahydroquinolin-8-yl)amino)valerate 1-naphthalenemethylamide]",75.1,,0/3
"c1cc(CN2CCCNCCNCCCNCC2)ccc1CN1CCCNCCNCCCNCC1 [AMD3100, reference compound]",,10,
O=C(N[C@@H](CCCNC1CCCc2cccnc21)C(=O)NCc1cccc2ccccc12)c1ccc(CNCc2ncc[nH]2)s1 (some centres unmarked) [Compound No. 16],75.3,,
"C[C@H](NC(=O)[C@H](CCCNC(=N)N)NC(=O)c1ccc(CNCc2ccccn2)c2ccccc12)c1cccc2ccccc12 [Compound No. 99, N^α-(4-(N-2-picolylaminomethyl)naphthoyl)-L-arginine(1′S)-1′-(1-naphthyl)ethylamide]",76.4,,0/3
C[C@H](NC(=O)[C@H](CCCNC1CCCc2cccnc21)NC(=O)c1ccc(CNCc2nccn2C)cc1)c1cccc2ccccc12 (some centres unmarked) [Compound No. 107],96.5,,0/3

# Now from value to molecule, other results behind:
inhibition rate (binding-inhibition % at 0.1 μM) (CXCR4) [%],inhibition at 0.1 µM (CXCR4; read-out: inhibition rate (binding-inhibition % at 0.1 μM)) [%],SMILES,Number of dead mice (ICR mice)
100.0,,C[C@H](NC(=O)[C@H](CCCNC(=N)N)NC(=O)c1ccc(CNCc2ncc[nH]2)cc1)c1cccc2ccccc12 [Compound No. 95],
43.6,,"NC(N)=NCCC[C@H](NC(=O)c1ccc(CNCc2ccccn2)cc1)C(=O)NCc1cccc2ccccc12 [Compound No. 43, N^α-(4-(N-2-picolylaminomethyl)benzoyl)-L-arginine 1-naphthalenemethylamide]",
90.7,,"C[C@H](NC(=O)[C@H](CCCNC1CCCc2cccnc21)NC(=O)c1ccc(CNCc2ccccn2)c2ccccc12)c1cccc2ccccc12 (stereo partly drawn) [Compound No. 85, (2S)-2-(4-(N-2-picolylaminomethyl)naphthoyl)amino-5-(5,6,7,8-tetrahydroquinolin-8-yl)amino valerate(1′S)-1′-(1-naphthyl)-ethylamide]",
90.0,,"O=C(N[C@@H](CCCNC1CCCc2cccnc21)C(=O)NCc1cccc2ccccc12)c1ccc(CNCc2ccccn2)c2ccccc12 (stereo partly drawn) [Compound No. 38, (2S)-2-(4-(N-2-picolylaminomethyl)naphthoylamino)-5-(5,6,7,8-tetrahydroquinolin-8-ylamino)valerate 1-naphthalenemethylamide]",
88.1,,"N=C(N)NCCC[C@H](NC(=O)c1ccc(CNCc2ccccn2)c2ccccc12)C(=O)NCc1cccc2ccccc12 [Compound No. 44, N^α-(4-(N-2-picolylaminomethyl)naphthoyl)-L-arginine 1-naphthalenemethylamide]",
69.9,,C[C@H](NC(=O)[C@H](CCCNCc1ccccn1)NC(=O)c1ccc(CNCc2ncc[nH]2)c2ccccc12)c1cccc2ccccc12 [Compound No. 56],
32.9,,"O=C(N[C@@H](CCNCc1ccccn1)C(=O)NCc1cccc2ccccc12)c1ccc(CNCc2ccccn2)cc1 [Compound No. 61, (S)-2-(4-(N-2-picolylamino)methylbenzoylamino)-4-(N-2-picolylamino)lactate 1-naphthalenemethylamide]",
16.8,,"O=C(N[C@@H](CCCNCc1ccccn1)C(=O)NCc1cccc2ccccc12)c1ccc(CNCc2ccccn2)cc1 [Compound No. 60, (S)-2-(4-(N-2-picolylaminomethyl)benzoylamino)-5-(N-2-picolylamino)valerate 1-naphthalenemethylamide]",
12.8,,"O=C(N[C@@H](CCCNCc1ncc[nH]1)C(=O)NCc1cccc2ccccc12)c1ccc(CNCc2ncc[nH]2)cc1 [Compound No. 21, (S)-2-(4-((imidazol-2-ylmethyl)aminomethyl)benzoylamino)-5-((imidazol-2-ylmethyl)amino)valerate 1-naphthalenemethylamide]",
